Results reported in ChEMBL document CHEMBL1201862, “PubChem BioAssay data set” (2004).
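All cell lines were grown in 96-well plates and treated with compound for 48 hours. The concentration for 50% growth inhibition is given as GI50.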 Active and inactive are the calls of the source. Rule as the data show it: active = GI50 up to about 1.1 µM and inactive = higher.

Assays:
Experiment in all cases: NCI tumour cell line growth inhibition, 48 h
[1] = system: 786-0
[2] = system: HCC 2998
[3] = system: HCT-15
[4] = system: HOP-62
[5] = system: HOP-92
[6] = system: K562
[7] = system: MDA-MB-231
[8] = system: MDA-MB-435
[9] = system: MDA-N
[10] = system: NCI-H23
[11] = system: NCI-H460
[12] = system: NCI-H522
[13] = system: OVCAR-4
[14] = system: PC-3
[15] = system: SK-MEL-28
[16] = system: SN12C
[17] = system: T47D
[18] = system: CCRF-CEM
[19] = system: COLO 205
[20] = system: OVCAR-3

| Compound | GI50 [1] | GI50 [2] | GI50 [3] | GI50 [4] | GI50 [5] | GI50 [6] | GI50 [7] | GI50 [8] | GI50 [9] | GI50 [10] | GI50 [11] | GI50 [12] | GI50 [13] | GI50 [14] | GI50 [15] | GI50 [16] | GI50 [17] | GI50 [18] | GI50 [19] | GI50 [20] |
| --- | --- | --- | --- | --- | --- | --- | --- | --- | --- | --- | --- | --- | --- | --- | --- | --- | --- | --- | --- | --- |
| O=c1[nH]c2nc(S)nc(S)c2[nH]1 | > 100 µM (inactive) | > 100 µM (inactive) | > 100 µM | > 100 µM (inactive) | > 100 µM (inactive) | > 100 µM (inactive) | > 100 µM (inactive) | > 100 µM (inactive) | > 100 µM (inactive) | > 100 µM (inactive) | > 100 µM (inactive) | > 100 µM (inactive) | > 100 µM (inactive) | > 100 µM (inactive) | > 100 µM (inactive) | > 100 µM (inactive) | > 100 µM (inactive) | – | – | – |
| CCc1nc(Cl)nc(Cl)c1Cl | 0.415 µM (active) | 0.706 µM (active) | 0.318 µM | 8.05 µM (inactive) | 2.11 µM (inactive) | 0.107 µM (active) | 1.63 µM (inactive) | 1.06 µM (active) | 1.77 µM (inactive) | 1.08 µM (active) | 7.98 µM (inactive) | 0.0494 µM (active) | 0.553 µM (active) | 1.26 µM (inactive) | 4.95 µM (inactive) | 2.22 µM (inactive) | 5.55 µM (inactive) | 0.177 µM (active) | 0.284 µM (active) | 0.535 µM (active) |
| COc1ccc(/C=C2\CC3C4CC=C5C[C@@H](O)CC[C@]5(C)C4CC[C@]3(C)C2=O)cc1OC (some centres undefined) | 40.3 µM (inactive) | 14.9 µM (inactive) | 34 µM | 44 µM (inactive) | 74.6 µM (inactive) | 12.5 µM (inactive) | 25.8 µM (inactive) | 24.3 µM (inactive) | 42.2 µM (inactive) | 42.6 µM (inactive) | 17.3 µM (inactive) | 17.2 µM (inactive) | 21.8 µM (inactive) | 25.9 µM (inactive) | 81.1 µM (inactive) | 23.1 µM (inactive) | 8.28 µM (inactive) | 20.7 µM (inactive) | 16.3 µM (inactive) | 5.09 µM (inactive) |
| CCOC(=O)c1sc2c(c1OC(=O)c1ccc(OC)cc1)c(=O)n(-c1ccccc1)c(=S)n2-c1ccccc1 | 35.5 µM (inactive) | 16.3 µM (inactive) | > 100 µM | 54 µM (inactive) | 20.9 µM (inactive) | > 100 µM (inactive) | 16.4 µM (inactive) | > 100 µM (inactive) | > 100 µM (inactive) | > 100 µM (inactive) | 94.6 µM (inactive) | 1.41 µM (inactive) | 10.2 µM (inactive) | > 100 µM (inactive) | > 100 µM (inactive) | 75.7 µM (inactive) | > 100 µM (inactive) | > 100 µM (inactive) | > 100 µM (inactive) | > 100 µM (inactive) |
| CCOC(=O)C(=[N+]=[N-])C(=O)C[N+]12CCN(CC1)CC2 | > 100 µM (inactive) | > 100 µM (inactive) | > 100 µM | > 100 µM (inactive) | > 100 µM (inactive) | > 100 µM (inactive) | > 100 µM (inactive) | > 100 µM (inactive) | > 100 µM (inactive) | > 100 µM (inactive) | > 100 µM (inactive) | > 100 µM (inactive) | > 100 µM (inactive) | > 100 µM (inactive) | > 100 µM (inactive) | > 100 µM (inactive) | > 100 µM (inactive) | > 100 µM (inactive) | > 100 µM (inactive) | > 100 µM (inactive) |
| C=CCN1C(N)=C(C#N)C(C#N)(C#N)C1CCC (centres undefined) | > 100 µM (inactive) | > 100 µM (inactive) | > 100 µM | > 100 µM (inactive) | 52.1 µM (inactive) | > 100 µM (inactive) | > 100 µM (inactive) | > 100 µM (inactive) | > 100 µM (inactive) | > 100 µM (inactive) | > 100 µM (inactive) | > 100 µM (inactive) | > 100 µM (inactive) | > 100 µM (inactive) | – | > 100 µM (inactive) | 54.8 µM (inactive) | > 100 µM (inactive) | > 100 µM (inactive) | > 100 µM (inactive) |
| S=C1/C(=N/c2ccccc2)N(C2CCCCC2)/C(=N\C2CCCCC2)N1c1ccccc1 | 75.7 µM (inactive) | 86.5 µM (inactive) | > 100 µM | 51.8 µM (inactive) | > 100 µM (inactive) | > 100 µM (inactive) | > 100 µM (inactive) | > 100 µM (inactive) | > 100 µM (inactive) | > 100 µM (inactive) | 38 µM (inactive) | 6.73 µM (inactive) | > 100 µM (inactive) | 63.8 µM (inactive) | > 100 µM (inactive) | 47.8 µM (inactive) | 82.6 µM (inactive) | > 100 µM (inactive) | 47.6 µM (inactive) | – |
| O=C(CCl)N1CCCCC1C1(c2cc3ccccc3[nH]2)OCCO1 (centres undefined) | 0.869 µM (active) | 10.4 µM (inactive) | 4.82 µM | 3.12 µM (inactive) | 1 µM (active) | 1.93 µM (inactive) | 2.69 µM (inactive) | 3.36 µM (inactive) | 2.34 µM (inactive) | 2.21 µM (inactive) | 9.71 µM (inactive) | 0.194 µM (active) | 1.73 µM (inactive) | 2.98 µM (inactive) | 11.6 µM (inactive) | 2.25 µM (inactive) | 7.45 µM (inactive) | 0.281 µM (active) | 2.94 µM (inactive) | 2.01 µM (inactive) |
| CCN(CC)CCO/N=C1\CC[C@H]2[C@@H]3CCc4cc(OC)ccc4[C@H]3CC[C@]12C | 1.59 µM (inactive) | 1.71 µM (inactive) | 0.489 µM | 1.77 µM (inactive) | 2.45 µM (inactive) | 0.685 µM (active) | 3.37 µM (inactive) | 0.632 µM (active) | 1.75 µM (inactive) | 5.09 µM (inactive) | 0.804 µM (active) | 2.52 µM (inactive) | 9.08 µM (inactive) | 2.64 µM (inactive) | 0.628 µM (active) | 3.03 µM (inactive) | 2.79 µM (inactive) | 1.22 µM (inactive) | 1.57 µM (inactive) | 4.25 µM (inactive) |
| CC(=O)C1(O)Cc2c(O)c3c(c(O)c2C(OC2CC(N)C(O)C(C)O2)C1)C(=O)c1ccccc1C3=O (centres undefined) | 0.0152 µM (active) | 0.0385 µM (active) | 0.0277 µM | 0.0141 µM (active) | 0.187 µM (active) | 0.083 µM (active) | 0.252 µM (active) | 0.12 µM (active) | 0.112 µM (active) | 0.0227 µM (active) | 0.000569 µM (active) | 0.015 µM (active) | 0.327 µM (active) | 0.247 µM (active) | – | 0.0207 µM (active) | 0.0497 µM (active) | 0.01 µM (active) | 0.0796 µM (active) | 0.178 µM (active) |
| Cc1nc(C)c(C(=O)NNC(=O)Cc2ccccc2)cc1C(=O)NNC(=O)Cc1ccccc1 | > 100 µM (inactive) | > 100 µM (inactive) | > 100 µM | > 100 µM (inactive) | > 100 µM (inactive) | > 100 µM (inactive) | > 100 µM (inactive) | > 100 µM (inactive) | > 100 µM (inactive) | > 100 µM (inactive) | > 100 µM (inactive) | > 100 µM (inactive) | > 100 µM (inactive) | > 100 µM (inactive) | – | > 100 µM (inactive) | > 100 µM (inactive) | > 100 µM (inactive) | > 100 µM (inactive) | > 100 µM (inactive) |
| CO[C@@H](c1ccccc1)[C@H](O)[C@](O)(c1ccccc1)P(=O)(OC)OC | > 100 µM (inactive) | > 100 µM (inactive) | > 100 µM | – | 91.6 µM (inactive) | > 100 µM (inactive) | > 100 µM (inactive) | > 100 µM (inactive) | > 100 µM (inactive) | > 100 µM (inactive) | > 100 µM (inactive) | > 100 µM (inactive) | > 100 µM (inactive) | > 100 µM (inactive) | > 100 µM (inactive) | > 100 µM (inactive) | > 100 µM (inactive) | > 100 µM (inactive) | > 100 µM (inactive) | > 100 µM (inactive) |
| CC(=O)OC1/C(=C/c2ccc([N+](=O)[O-])cc2)C[C@H]2[C@@H]3CC=C4C[C@@H](OC(C)=O)CC[C@]4(C)[C@H]3CC[C@]12C (some centres undefined) | 70.6 µM (inactive) | > 100 µM (inactive) | > 100 µM | 34.7 µM (inactive) | 34.4 µM (inactive) | – | 58.3 µM (inactive) | > 100 µM (inactive) | > 100 µM (inactive) | > 100 µM (inactive) | > 100 µM (inactive) | > 91.8 µM (inactive) | > 96.4 µM (inactive) | > 100 µM (inactive) | > 100 µM (inactive) | > 100 µM (inactive) | > 100 µM (inactive) | > 40.6 µM (inactive) | > 54.6 µM (inactive) | > 100 µM (inactive) |
| FC(F)(F)c1ccc2c(c1)nc(Cc1ccc(Cl)c(Cl)c1)n2CC1CCCN2CCCCC12 (centres undefined) | 16.2 µM (inactive) | 8.95 µM (inactive) | 30.8 µM | 31 µM (inactive) | 22.9 µM (inactive) | 32.5 µM (inactive) | 15.3 µM (inactive) | 30.4 µM (inactive) | 18.2 µM (inactive) | – | 19.6 µM (inactive) | 14.2 µM (inactive) | 74.5 µM (inactive) | 30.5 µM (inactive) | 21.1 µM (inactive) | 20.3 µM (inactive) | 29 µM (inactive) | – | 16.1 µM (inactive) | 20 µM (inactive) |
